Laboratory results published in patent publication US7026281B1, “Antagonistic analogs of GH-RH inhibiting IGF-I and -II” (The Administrators of the Tulane Educational Fund, priority 1998, dated 2006).
Marks after values point to notes of the source that are not given here. Square brackets hold non-standard residues; d marks the D form. Peptide text beside a SMILES is read from it. * marks the point of attachment. Phe(4-Cl) = N[C@@H](Cc1ccc(Cl)cc1)C(=O)O; hArg = N=C(N)NCCCC[C@H](N)C(=O)O; Nle = CCCC[C@H](N)C(=O)O; Abu = CC[C@H](N)C(=O)O; PhAc = O=C(Cc1ccccc1)*

Experiments:
[1] = system: hGH-RH(1–29)NH2 induced GH release; assay: Inhibition of GH release in superfused rat pituitary system; type: cell-based; conditions: for Inhibition of GH release (%) 30 min / Inhibition of GH release (%) 60 min / Inhibition of GH release (%) 90 min / Inhibition of GH release (%) 120 min / Inhibition of GH release (%) 0 min: antagonist 30 nM; for Inhibition of GH release (%) 30 min: 1 nM hGH-RH(1–29)NH2 30 min later; for Inhibition of GH release (%) 60 min: 1 nM hGH-RH(1–29)NH2 60 min later; for Inhibition of GH release (%) 90 min: 1 nM hGH-RH(1–29)NH2 90 min later; for Inhibition of GH release (%) 120 min: 1 nM hGH-RH(1–29)NH2 120 min later; for Inhibition of GH release (%) 0 min: 1 nM hGH-RH(1–29)NH2 at 0 min
Method in brief: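 Superfused rat pituitary cells preincubated 9 min with peptide, then challenged for 3 min with 1 nM hGH-RH(1–29)NH2 at 0, 30, 60, 90 and 120 min. Rat GH measured by double-antibody RIA; net integral GH responses expressed as percent of the original 1 nM GH-RH-induced response.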

[2] = system: MDA-MB-468 human breast cancer xenografts; assay: MDA-MB-468 human breast cancer xenografts in nude mice; type: in vivo; conditions: 20 μg daily s.c., 5 weeks
Procedure: Nude mice bearing MDA-MB-468 hormone-independent human breast cancer xenografts were divided into groups of 10 animals each. The treated groups received single daily s.c. injections of 20 μg of GH-RH antagonists. One group was treated with Peptide 1, a second group was treated with MZ-5-156 for comparison. The control group was injected with the vehicle solvent. The treatment was continued for 5 weeks. Tumors were measured once a week and tumor volume was calculated. The mice were sacrificed at the end of experiment and tumor weights were measured.

[3] = system: HT-29 human colon cancers; assay: HT-29 human colon cancer xenografts in nude mice; type: in vivo; conditions: 20 μg daily sc., 6 weeks
Procedure: HT-29 human colon cancers were transplanted sc. into male nude mice. 19 days after transplantation, the mice were divided into groups of 10 animals each, and the treatment was started. The mice received single daily injections of various GH-RH antagonists sc. at 20 μg dose per day for 6 weeks. Tumors were measured regularly, and tumor volume was calculated. The mice were sacrificed at the end of experiment and tumor weights were measured.

[4] = system: U87MG human glioblastoma xenografts; assay: U87MG human glioblastoma xenografts in nude mice; type: in vivo; conditions: 20 μg daily s.c., 28 days
Procedure: Mice were implanted s.c. with U87MG glioblastomas and when tumors reached a volume of approx. 70 mm^3 the mice were randomly divided into 2 experimental groups. One group was treated with Peptide 1 in single daily s.c. injections of 20 μg for 28 days, while the other group served as control.

[5] = system: PC-3 human prostate cancer xenografts; assay: PC-3 human prostate cancer xenografts in nude mice; type: in vivo; conditions: 20 μg daily s.c., 21 days
Procedure: Male nude mice were implanted s.c. with 3 mm^3 pieces of PC-3 human hormone-independent prostate cancer tissue into both flanks. When tumors reached a volume of approx. 40–50 mm^3 the mice were divided into 3 experimental groups. The first and second groups were treated with peptides Peptide 3 and MZ-5-156, respectively, in single daily s.c. injections of 20 μg for 21 days, while the third group served as control. Tumor volumes were measured at weekly intervals, tumor weights were measured at the end of experiment.

Row | Structure (SMILES) | Inhibition of GH release (%) 30 min [1] | Inhibition of GH release (%) 60 min [1] | Inhibition of GH release (%) 90 min [1] | Inhibition of GH release (%) 120 min [1] | Inhibition of GH release (%) 0 min [1] | Duration of complete inhibition of the GH-RH induced GH release ([1]; standard test conditions) | Final tumor volume (mm^3) ([2]; nude mice) | Tumor weight ([2]; nude mice) | Number of regressed tumors ([2]; groups of 10) | Inhibitory effect on HT-29 human colon cancers (in words) [3] | Final tumor volume (mm^3) ([3]; nude mice) | Tumor weight ([3]; nude mice) | Final tumor volume (mm^3) [4] | Tumor weight [4] | Inhibition in tumor volume [5] | Inhibition in tumor weight [5] | Final tumor volume (mm^3) ([5]; nude mice) | Tumor weight ([5]; nude mice)
1 | CCCC[C@H](NC(=O)[C@@H](NC(=O)[C@H](CC(=O)O)NC(=O)[C@H](CCC(N)=O)NC(=O)[C@H](CC(C)C)NC(=O)[C@H](CC(C)C)NC(=O)[C@H](CCCCN)NC(=O)[C@H](CCCNC(=N)N)NC(=O)[C@H](C)NC(=O)[C@H](CO)NC(=O)[C@H](CC(C)C)NC(=O)[C@H](CCC(N)=O)NC(=O)[C@H](CC)NC(=O)[C@H](CC(C)C)NC(=O)[C@@H](NC(=O)[C@H](CCCCN)NC(=O)[C@H](CCCNC(=N)N)NC(=O)[C@H](Cc1ccc(O)cc1)NC(=O)[C@H](CCCNC(=N)N)NC(=O)[C@H](CC(N)=O)NC(=O)[C@@H](NC(=O)[C@H](Cc1ccc(Cl)cc1)NC(=O)[C@@H](NC(=O)[C@H](C)NC(=O)[C@H](CC(=O)O)NC(=O)[C@@H](CCCNC(=N)N)NC(=O)[C@H](Cc1ccc(O)cc1)NC(=O)Cc1ccccc1)[C@@H](C)CC)[C@@H](C)O)C(C)C)[C@@H](C)CC)C(=O)N[C@H](CCCNC(=N)N)C(=O)N[C@@H](CCCCNC(=N)N)C(N)=O [Peptide 1, [PhAc^0, D-Arg^2, Phe(pCl)^6, Arg^9, Abu^15, Nle^27, D-Arg^28, Har^29]hGH-RH(1–29)NH2] (PhAc-Y[dR]DAI[Phe(4-Cl)]TNRYRKVL[Abu]QLSARKLLQDI[Nle][dR][hArg]-NH2) | 100% | 100% | 100% | 94% | 100% | 90 min | 82.4 ± 29.1** mm^3 | 64.0 ± 28.7 mg | 4 | equally strong inhibitory effect | 890 ± 322* mm^3 | 1354 ± 480 mg | 817 ± 323** mm^3 | 1.4 ± 0.7 g | – | – | – | –
2 | CCCC[C@H](NC(=O)[C@@H](NC(=O)[C@H](CC(=O)O)NC(=O)[C@H](CCC(N)=O)NC(=O)[C@H](CC(C)C)NC(=O)[C@H](CC(C)C)NC(=O)[C@H](CCCCN)NC(=O)[C@H](CCCNC(=N)N)NC(=O)[C@H](C)NC(=O)[C@H](CO)NC(=O)[C@H](CC(C)C)NC(=O)[C@H](CCC(N)=O)NC(=O)[C@H](CC)NC(=O)[C@H](CC(C)C)NC(=O)[C@@H](NC(=O)[C@H](CCCCN)NC(=O)[C@H](CCCNC(=N)N)NC(=O)[C@H](Cc1ccc(OC)cc1)NC(=O)[C@H](CCCCNC(=N)N)NC(=O)[C@H](CC(N)=O)NC(=O)[C@@H](NC(=O)[C@H](Cc1ccc(Cl)cc1)NC(=O)[C@@H](NC(=O)[C@H](C)NC(=O)[C@H](CC(=O)O)NC(=O)[C@@H](CCCNC(=N)N)NC(=O)[C@H](Cc1ccc(O)cc1)NC(=O)Cc1ccccc1)[C@@H](C)CC)[C@@H](C)O)C(C)C)[C@@H](C)CC)C(=O)N[C@H](CCCNC(=N)N)C(=O)N[C@@H](CCCCNC(=N)N)C(N)=O [Peptide 3, [PhAc^0, D-Arg^2, Phe(pCl)^6, Har^9, Tyr(Me)^10, Abu^15, Nle^27, D-Arg^28, Har^29]hGH-RH(1–29)NH2] (PhAc-Y[dR]DAI[Phe(4-Cl)]TN[hArg]Y(Me)RKVL[Abu]QLSARKLLQDI[Nle][dR][hArg]-NH2) | 98% | 91% | 92% | 87% | 85% | – | – | – | – | – | – | – | – | – | 65% | 62% | 107.9 ± 12.5* mm^3 | 73.7 ± 11.9 mg
